Measurements taken from patent US20040023892A1, “Pharmaceutical composition based on a non-steroid anti-inflammatory agent” (priority 2002, published 2004).
Marks after values point to notes of the source that are not given here.

Experiments:
[1] = test system: inflammatory swelling of paw of mice after introduction of carragenin; assay: Inflammatory swelling of paw of mice after introduction of carragenin; format: in vivo; conditions: dose mg/kg; for Increase of Mass of Limb / Suppression of Swelling, % to Control: preparation alone, into stomach once a day 5 days, 3.5 hours after carragenin; for swelling of paw of mice after introduction of carragenine: Table 4, Control: NAIA alone; for swelling of paw of mice after introduction of carragenin: the values are: increase of paw mass
Protocol: Tests were performed on breedless white mice-males with mass 22-24 g. The investigated preparations were introduced to animals through a probe into stomach once a day during five days in form of suspension on 1% starch mucous or aqueous solution.
In one hour after the last introduction of preparations, mice were injected with 0.05 ml of 1% of solution of carragenin in isotonic solution of sodium chloride, under aneurism of right rear paw. After 3.5 hours, on a peak of inflammation, they were killed by dislocation of a neck area of spine. Swollen and healthy paws were compared, and a degree of suppression of swelling was determined in test groups when compared with a control group in accordance with the formula:
Increase of mass of paw in control-increase of mass of paw in test ______ 100 increase of mass of paw in control.
Tests were performed on breedless white mice-males with mass 22-26 g.

ambulatory patients [2] = conditions: human, in vivo
ambulatory patients [3] = assay: Clinical investigation of side effects of NAIA combinations with carbohydrates or sorbents
breedless mice-male = assay: Acute toxicity of ASA (LD50) with carbohydrate or sorbent; format: in vivo; conditions: relative to LD50 of ASA alone
Protocol: Tests were conducted on breedless mice-male with mass 22-26 g. Acute toxicity of ASA was evaluated in accordance with the value LD50 (dose from which 50% of animals perish) of composition containing ACA plus carbohydrate or sorbent with ratio 4:1 when compared with LD50 ASA. Preparations were introduced one time intostomach in form of aqueous suspension with doses 350-3000 mg/kg to groups of six mice. Observations were conducted during 14 days. As a substance which has absorbing properties there were used activated carbon, white clay (caolin), aluminum hydroxide, magnium tricilicate, hydroxylapatite, microcrystaalline cellulose (MCC). As carbohydrates there were used monosaccarides-glucose and fructose, disaccaride-saccarose and lactose, and polysaccaride-potato starch. Results of experiments were processed in accordance with the method of Lichfield-Wilkoxon (Belensky, M. L. “Elements of quantitative evaluation of pharmacological effect,” second edition, redone and added, L, Medgiz, 1963, 152 p).
LD50 composition were counted on ASA (tables 7, 8).

[4] = 0.25 g with succinate of ammonium 0.1 g and activated carbon (0.35 g), two times a day 8 weeks

Compound	Increase of Mass of Limb ([1]; n = 10) [mg]	Suppression of Swelling, % to Control ([1]; n = 10)	swelling of paw of mice after introduction of carragenine ([1]; N = 10)	other results
NCC(=O)O [GLy, glycin]	63.0 ± 5.5	+4.8 % to Control		
O=C(O)Cc1ccccc1Nc1c(Cl)cccc1Cl [VL, voltaren]			24.3*	
O=C([O-])Cc1ccccc1Nc1c(Cl)cccc1Cl.[Na+] [ortofen]				dispeptic phenomenon, headaches, dizziness (ambulatory patients [2]): less exhibited; taking of medication (ambulatory patients [2]): taking medication better
O=C(O)c1cccnc1Nc1cccc(C(F)(F)F)c1 [NA, niflumic acid]			31.1*	
Vitamin B6 [Vit B6]	60.5	+0.7 % to Control		
O=c1c(O)c(-c2ccc(O)c(O)c2)oc2cc(O)cc(O)c12 [KV, kvertsetin]	58.7 ± 3.6	−2.3 % to Control		
COc1ccc2cc([C@H](C)C(=O)O)ccc2c1 [NP, naproxen]			28.9*	
N[C@@H](CS)C(=O)O [TIS, tsistein]	61.5 ± 6.4	+2.3 % to Control		
CCCCC1C(=O)N(c2ccccc2)N(c2ccccc2)C1=O [BN, butadion]			32.4*	
COc1ccc2c(c1)c(CC(=O)O)c(C)n2C(=O)c1ccc(Cl)cc1 [IM, indometatsin]			19.0*	patients needing antyhistamine substances for reduction of allergenic phenomena (ambulatory patients [3]; 0.05 g with 0.25 g karsil, group which did not receive sorbent): one more patient needed antyhistamine substances; patients forced to stop taking preparation because of strong headaches in epigastric, vomiting (ambulatory patients [3]; 0.05 g with 0.25 g karsil, group which did not receive sorbent, after the third week): 1 patient; side effects of indometnacyne, in particular dispeptic phenomena, dizziness, headaches (ambulatory patients [3]; 0.05 g with 0.25 g karsil, together with microcrystalline cellulose 1:2, 5 weeks, versus without sorbent): to a lesser degree
CN1C(C(=O)Nc2ccccn2)=C(O)c2ccccc2S1(=O)=O [PK, piroxikam]	28.8 ± 4.9	−52.0 % to Control	28.8*	swelling of paw of mice after introduction of carragenin ([1]; Table 2, column Control: NAIA alone, N = 10): 28.8 mg; swelling of paw of mice after introduction of carragenin ([1]; Table 3, column Control: NAIA alone, n = 10): 28.8 mg; swelling of paw of mice after introduction of carragenin ([1]; Table 5, column Control: NAIA alone, N = 10): 28.8 mg
N.N.O=C(O)CCC(=O)O [S-NH4, succinate of ammonium]	63.5 ± 6.1	+5.7 % to Control		
Vitamin E [Vit E]	58.7	−2.3 % to Control		
CC(=O)Oc1ccccc1C(=O)O [ASA, acetyl salicylic acid]			41.3*	Increase of Toxicity In (breedless mice-male): 0; better taking of mixture ASA and ammonium succinate (ambulatory patients [3]; [4]): Four from five; dyspeptic phenomena (ambulatory patients [3]; [4]): all 5 exhibited dyspeptic phenomena to a lesser degree
O=C(O)CCCCC1CCSS1 (stereo not drawn) [Lipoic acid LA, lipoic acid]	62.3	+3.7 % to Control		
O=C(O)/C=C/C(=O)O [FUM, fumaric]	59.3 ± 5.5	−1.3 % to Control		
